In one data set the target is EGFR L858R/T790M (LR/TM) (Homo sapiens, UniProt P00533, L858R/T790M). The data set can be described thus: ELISA kinase activity detection, EGFR double mutant. Format: biochemical. The note with it: ELISA-based EGFR-TK assay, ATP 5 μM, mean ± SD.
The target of the next data set is EGFR(WT) (Homo sapiens, UniProt P00533). Nature of the data set: ELISA kinase activity detection, EGFR(WT). The note with it: ELISA-based EGFR-TK assay, ATP 5 μM; mean ± SD of at least two determinations. Format: biochemical. The procedure: (§1) Tyrosine kinase: EGFR(WT) • EGFR^T790M/L858R(LR/TM) • EGFR^T790M/L858R/[…](LR/TM/CS)
Chain of EGFR(WT) (P00533 25-1210): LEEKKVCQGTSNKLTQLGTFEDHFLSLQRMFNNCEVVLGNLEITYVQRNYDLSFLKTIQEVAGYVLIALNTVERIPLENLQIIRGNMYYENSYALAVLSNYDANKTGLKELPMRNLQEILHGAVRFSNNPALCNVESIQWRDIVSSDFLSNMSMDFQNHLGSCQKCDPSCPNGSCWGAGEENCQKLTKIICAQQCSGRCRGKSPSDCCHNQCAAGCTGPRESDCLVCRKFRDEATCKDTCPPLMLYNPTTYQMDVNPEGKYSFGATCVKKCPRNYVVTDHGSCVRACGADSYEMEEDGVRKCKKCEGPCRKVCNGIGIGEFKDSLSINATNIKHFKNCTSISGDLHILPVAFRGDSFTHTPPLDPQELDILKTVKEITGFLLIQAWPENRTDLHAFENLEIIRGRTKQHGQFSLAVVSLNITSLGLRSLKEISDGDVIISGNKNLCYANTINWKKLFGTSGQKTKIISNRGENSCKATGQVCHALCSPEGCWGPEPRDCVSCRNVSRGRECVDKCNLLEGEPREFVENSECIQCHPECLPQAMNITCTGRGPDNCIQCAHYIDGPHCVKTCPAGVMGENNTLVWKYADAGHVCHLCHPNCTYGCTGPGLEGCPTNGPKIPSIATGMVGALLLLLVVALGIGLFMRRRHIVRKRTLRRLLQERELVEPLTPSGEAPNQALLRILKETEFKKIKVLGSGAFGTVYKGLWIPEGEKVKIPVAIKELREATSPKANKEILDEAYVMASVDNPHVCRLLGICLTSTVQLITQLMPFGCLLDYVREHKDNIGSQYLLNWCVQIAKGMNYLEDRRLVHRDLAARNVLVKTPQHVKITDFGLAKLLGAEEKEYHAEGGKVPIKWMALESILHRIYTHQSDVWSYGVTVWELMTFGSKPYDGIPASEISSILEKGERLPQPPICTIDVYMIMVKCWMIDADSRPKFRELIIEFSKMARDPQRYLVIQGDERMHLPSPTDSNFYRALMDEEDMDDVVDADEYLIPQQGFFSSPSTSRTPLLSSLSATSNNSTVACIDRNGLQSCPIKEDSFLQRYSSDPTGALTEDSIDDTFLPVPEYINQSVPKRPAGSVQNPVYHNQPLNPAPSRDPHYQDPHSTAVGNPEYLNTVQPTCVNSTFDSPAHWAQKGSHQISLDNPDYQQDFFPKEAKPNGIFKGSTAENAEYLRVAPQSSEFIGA
(§2) ELISA Kinase Activity Detection
Enzyme-Linked Immunosorbent Assay (ELISA) was used to detect the ability of a kinase to phosphorylate a substrate and calculate the inhibitory effect of a compound on the kinase activity. […]
(§3) The main steps of ELISA are listed as follows: the substrate Poly(Glu, Tyr) 4:1 was diluted with potassium ion-free PBS to 2.5 μg/well, incubated at 37° C. for 12-16 h to coat the ELISA plate for use. An ATP solution (final concentration of 5 μM) diluted with a reaction buffer (50 mM HEPES pH 7.4, 20 mM MgCl2, 0.1 mM MnCl2, 0.2 mM Na3VO4, 1 mM DTT) was added to each well. A compound or solvent control was added, and then a kinase was added to start the reaction at 37° C. in a shaker for 1 h. The plate was washed for three times with T-PBS, and 100 μL of antibody PY99 (diluted in T-PBS containing 5 mg/mL BSA, 1: 500) was added, and incubated in a shaker at 37° C. for 0.5 h. After washing the plate with T-PBS, 100 μL of horseradish peroxidase-labeled goat anti-mouse IgG (diluted in T-PBS containing 5 mg/mL BSA, 1: 2000) was added, and incubated in a shaker at 37° C. for 0.5 h. After washing the plate again, a developing liquid containing 0.03% H2O2, 2 mg/mL OPD (0.1 mol/L, in citrate buffer solution pH 5.4) was added at 100 μL/well, and incubated for 1-10 min at 25° C. in darkness. 50 μL/well of 2 M H2SO4 was added to quench the reaction, and read with a wavelength-tunable microplate reader (SpectraMax Plus384, Molecular Devices) at a wavelength of 490 nm. The IC50 value was obtained from the inhibition curve.

Data set [1] has as its target T1, EGFR L858R/T790M/C797S (LR/TM/CS) (Homo sapiens, UniProt P00533, C797S/L858R/T790M).
T1 construct: purchased BPS Bioscience
The data set can be described thus: ELISA kinase activity detection, EGFR triple mutant. The note with it: ELISA-based EGFR-TK assay, ATP 5 μM, mean ± SD. Format: biochemical. The procedure:
as §1, §2
Enzyme-Linked Immunosorbent Assay (ELISA) was used to detect the ability of a kinase to phosphorylate a substrate and calculate the inhibitory effect of a compound on the kinase activity. The used kinase was EGFR L858R/T790M/C797S (purchased from BPS Bioscience).
as §3

Chain of EGFR L858R/T790M (LR/TM) (P00533 25-1210 T790M/L858R): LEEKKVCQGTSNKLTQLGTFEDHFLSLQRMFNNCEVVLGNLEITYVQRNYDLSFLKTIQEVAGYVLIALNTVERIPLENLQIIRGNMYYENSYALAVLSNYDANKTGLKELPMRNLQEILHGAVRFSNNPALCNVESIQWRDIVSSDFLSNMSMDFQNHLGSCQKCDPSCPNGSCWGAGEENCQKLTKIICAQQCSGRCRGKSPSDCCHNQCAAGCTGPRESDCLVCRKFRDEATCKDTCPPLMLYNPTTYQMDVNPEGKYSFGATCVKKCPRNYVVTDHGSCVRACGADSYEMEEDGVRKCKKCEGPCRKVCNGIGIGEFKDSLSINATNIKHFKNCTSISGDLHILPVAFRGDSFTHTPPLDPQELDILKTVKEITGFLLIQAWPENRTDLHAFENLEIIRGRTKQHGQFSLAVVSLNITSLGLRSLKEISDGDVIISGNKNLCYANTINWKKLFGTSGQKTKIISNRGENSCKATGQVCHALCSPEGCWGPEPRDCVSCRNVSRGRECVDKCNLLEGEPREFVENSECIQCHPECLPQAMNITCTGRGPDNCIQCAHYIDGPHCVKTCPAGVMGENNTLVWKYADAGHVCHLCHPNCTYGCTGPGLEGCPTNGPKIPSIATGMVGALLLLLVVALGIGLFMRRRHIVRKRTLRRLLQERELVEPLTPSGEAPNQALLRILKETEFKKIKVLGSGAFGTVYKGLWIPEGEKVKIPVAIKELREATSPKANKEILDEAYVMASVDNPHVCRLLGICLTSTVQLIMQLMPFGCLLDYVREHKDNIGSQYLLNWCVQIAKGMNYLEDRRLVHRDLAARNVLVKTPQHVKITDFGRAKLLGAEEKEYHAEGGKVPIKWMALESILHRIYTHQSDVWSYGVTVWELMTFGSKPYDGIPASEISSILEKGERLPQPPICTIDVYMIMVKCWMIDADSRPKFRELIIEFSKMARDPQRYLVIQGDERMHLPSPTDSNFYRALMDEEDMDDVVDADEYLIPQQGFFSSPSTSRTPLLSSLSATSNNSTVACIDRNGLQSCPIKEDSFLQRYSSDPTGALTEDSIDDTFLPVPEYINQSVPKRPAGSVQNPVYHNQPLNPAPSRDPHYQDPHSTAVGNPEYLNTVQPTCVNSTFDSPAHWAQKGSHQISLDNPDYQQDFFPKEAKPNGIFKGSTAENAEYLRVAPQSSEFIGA
T1 sequence (P00533 25-1210 T790M/C797S/L858R): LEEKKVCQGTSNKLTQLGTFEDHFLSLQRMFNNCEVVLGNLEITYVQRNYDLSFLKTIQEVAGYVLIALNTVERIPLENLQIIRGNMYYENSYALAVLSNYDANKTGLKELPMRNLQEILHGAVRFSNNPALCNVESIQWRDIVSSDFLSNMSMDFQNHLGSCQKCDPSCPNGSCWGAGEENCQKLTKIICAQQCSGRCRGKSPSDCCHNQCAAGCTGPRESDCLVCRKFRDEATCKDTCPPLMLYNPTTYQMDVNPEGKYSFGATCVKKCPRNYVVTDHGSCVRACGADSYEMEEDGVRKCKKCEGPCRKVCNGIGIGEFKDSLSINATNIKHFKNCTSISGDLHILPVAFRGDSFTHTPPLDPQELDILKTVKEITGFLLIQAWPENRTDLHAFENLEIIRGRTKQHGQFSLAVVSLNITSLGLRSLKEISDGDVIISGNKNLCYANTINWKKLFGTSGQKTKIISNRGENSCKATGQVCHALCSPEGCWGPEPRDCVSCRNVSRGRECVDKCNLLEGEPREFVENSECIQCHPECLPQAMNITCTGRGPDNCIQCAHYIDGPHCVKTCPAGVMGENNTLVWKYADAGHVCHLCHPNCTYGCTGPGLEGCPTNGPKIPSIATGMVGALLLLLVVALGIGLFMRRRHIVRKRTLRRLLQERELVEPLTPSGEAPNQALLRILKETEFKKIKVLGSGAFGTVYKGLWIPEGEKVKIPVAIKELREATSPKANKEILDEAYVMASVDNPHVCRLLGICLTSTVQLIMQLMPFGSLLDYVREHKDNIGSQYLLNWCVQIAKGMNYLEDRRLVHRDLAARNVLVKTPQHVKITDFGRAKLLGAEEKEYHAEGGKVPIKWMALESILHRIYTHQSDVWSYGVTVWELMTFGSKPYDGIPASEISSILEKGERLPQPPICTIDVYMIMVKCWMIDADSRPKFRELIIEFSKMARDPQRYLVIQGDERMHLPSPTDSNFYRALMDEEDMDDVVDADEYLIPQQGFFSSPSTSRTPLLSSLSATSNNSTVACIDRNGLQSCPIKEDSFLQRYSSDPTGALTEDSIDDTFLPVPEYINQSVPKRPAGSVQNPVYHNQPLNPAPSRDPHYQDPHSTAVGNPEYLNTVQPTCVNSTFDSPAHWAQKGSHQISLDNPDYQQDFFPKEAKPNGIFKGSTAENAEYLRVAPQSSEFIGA

In turn, `COc1cc2c(Nc3ccccc3P(C)(C)=O)ncnc2cc1OCC1CCN(C)CC1` [Example 13, (2-((6-methoxy-7-((1-methylpiperidin-4-yl)methoxy)quinazolin-4-yl)amino)phenyl)dimethyl phosphine oxide] had a melting point of 150.5 to 150.8 °C. In addition, on EGFR L858R/T790M (LR/TM), the half-inhibitory concentration (IC50) was greater than 10000 nM. Moreover, the IC50 against EGFR(WT) turned out to be 7340 ± 2520 nM. This compound showed an IC50 in data set [1] greater than 10000 nM.
With `COc1cc2c(Nc3ccc(NC(=O)C(c4ccccc4)c4ccccc4)cc3F)ncnc2cc1OCC1CCN(C)CC1` [Example 11, N-(3-fluoro-4-((6-methoxy-7-((1-methylpiperidin-4-yl)methoxy)quinazolin-4-yl)amino)phenyl)-2,2-diphenyl], the melting point was in the range of 257 to 257.2 °C. The same compound gave an IC50 against EGFR L858R/T790M (LR/TM) of 1000 ± 435 nM. Besides, half-maximal inhibition against EGFR(WT) (IC50) was put at 5.6 ± 3.3 nM. It took 1300 ± 308 nM to reach half-maximal inhibition in data set [1] (IC50).
For the compound `CN1CCC(COc2ccc3c(Nc4ccccc4P(C)(C)=O)ncnc3c2)CC1` [Example 14], the melting point was in the range of 170.7 to 172.4 °C. Besides, at EGFR L858R/T790M (LR/TM), the 50% inhibitory concentration (IC50) was greater than 10000 nM. On EGFR(WT), the 50% inhibitory concentration (IC50) worked out at 2710 ± 80.2 nM. For the same compound, the IC50 in data set [1] was 9510 ± 526 nM.
`COc1cc2c(Nc3ccc(NC(=O)C(c4ccccc4)C(C)C)cc3F)ncnc2cc1OCC1CCN(C)CC1` (stereo not shown) [Example 10, N-(3-Fluoro-4-((6-methoxy-7-((1-methylpiperidin-4-yl)methoxy)quinazolin-4-yl)amino)phenyl)-3-methyl-2-phenylbutanamide]: the melting point lay within 196 to 196.2 °C. The compound also had an IC50 at EGFR L858R/T790M (LR/TM) of 2030 ± 755 nM. The same compound gave an IC50 against EGFR(WT) of 23.1 ± 8.3 nM. Besides, the IC50 in data set [1] was 3190 ± 2500 nM.

For the origin of these results see patent publication US20210155604A1, “QUINAZOLINE COMPOUND SERVING AS EGFR TRIPLE MUTATION INHIBITOR AND APPLICATIONS THEREOF” (EAST CHINA UNIVERSITY OF SCIENCE AND TECHNOLOGY, priority 2018, published 2021).
